{"source": "patent US20190072562A1", "about": "“SYSTEM AND METHOD FOR DETERMINATION OF LIGAND-TARGET BINDING BY MULTI-PHOTON FLUORESCENCE ANISOTROPY MICROSCOPY” (THE GENERAL HOSPITAL CORPORATION, priority 2014, published 2019)", "key": {"PARP1 [1]": {"target": "T1, PARP1 (Homo sapiens, UniProt P09874)", "T1 sequence (P09874 whole entry)": "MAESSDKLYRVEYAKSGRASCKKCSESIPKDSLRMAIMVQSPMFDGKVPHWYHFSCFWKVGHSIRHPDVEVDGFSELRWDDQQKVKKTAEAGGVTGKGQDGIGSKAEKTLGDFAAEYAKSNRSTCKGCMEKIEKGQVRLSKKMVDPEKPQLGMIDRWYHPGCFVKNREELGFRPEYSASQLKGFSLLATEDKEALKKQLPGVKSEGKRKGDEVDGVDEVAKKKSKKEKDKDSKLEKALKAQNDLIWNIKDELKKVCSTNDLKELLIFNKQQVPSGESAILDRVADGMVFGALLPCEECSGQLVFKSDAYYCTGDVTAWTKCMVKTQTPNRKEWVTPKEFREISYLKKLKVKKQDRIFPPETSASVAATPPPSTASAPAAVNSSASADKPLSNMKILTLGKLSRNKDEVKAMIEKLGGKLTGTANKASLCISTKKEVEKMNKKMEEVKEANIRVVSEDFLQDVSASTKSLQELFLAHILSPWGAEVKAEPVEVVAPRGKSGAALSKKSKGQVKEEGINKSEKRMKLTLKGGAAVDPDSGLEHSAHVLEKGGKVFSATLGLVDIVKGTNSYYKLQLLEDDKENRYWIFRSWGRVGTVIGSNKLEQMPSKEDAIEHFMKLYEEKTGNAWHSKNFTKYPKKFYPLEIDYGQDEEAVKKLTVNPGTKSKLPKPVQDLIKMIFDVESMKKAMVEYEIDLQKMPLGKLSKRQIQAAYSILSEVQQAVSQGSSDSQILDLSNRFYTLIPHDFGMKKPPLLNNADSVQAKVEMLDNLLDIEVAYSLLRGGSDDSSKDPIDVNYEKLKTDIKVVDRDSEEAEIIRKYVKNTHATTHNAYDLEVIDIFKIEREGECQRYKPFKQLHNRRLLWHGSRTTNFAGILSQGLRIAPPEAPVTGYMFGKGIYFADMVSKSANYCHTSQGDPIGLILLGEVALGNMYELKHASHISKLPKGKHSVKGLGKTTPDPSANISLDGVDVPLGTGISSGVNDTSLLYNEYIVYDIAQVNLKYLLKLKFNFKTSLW", "assay": "MFAM fluorescence anisotropy of free vs PARP1-bound AZD2281-BODIPY FL in solution", "assay_type": "binding", "conditions": "PARP1 at 1.6x of 5 μM probe, imaging media with 2.5% FBS", "method": "AZD2281 labeled with BODIPY FL (AZD2281-BODIPY FL) was prepared as previously described (see Thurber, G. M. et al., Single-cell and subcellular pharmacokinetic imaging allows insight into drug action in vivo, Nat Commun, 4, 1504, (2013), for example). PARP1 (BioVision) was brought up in the manufactures recommended solution and added at 1.6× the concentration of AZD2281-BODIPY FL (5 μM) in imaging media containing 2.5% FBS. Free AZD2281-BODIPY FL (5 μM) (no PARP) in the same imaging media with 2.5% FBS and in DMSO solutions were also made. Images were taken of drops of solution between cover glass.\n(§1) Images were analyzed in Matlab (Mathworks) and ImageJ. All anisotropy measurements were calculated from the equation r=(I∥−I⊥)/(I∥+2I⊥). The detector noise of the two photodetectors was subtracted from the whole images before the data were processed. Fluorescence images represent the denominator of the anisotropy equation, which represents the entire fluorescence from the sample. Anisotropy values were obtained by defining a region of interest and measuring the average anisotropy within that region. Regions were extended to fluorescent images to calculate the corresponding intensity. […]"}, "PARP [2]": {"target": "T2, PARP (Homo sapiens, UniProt P09874)", "T2 construct": "endogenous in cells; host or cells: HT1080", "T2 sequence (P09874 2-1014)": "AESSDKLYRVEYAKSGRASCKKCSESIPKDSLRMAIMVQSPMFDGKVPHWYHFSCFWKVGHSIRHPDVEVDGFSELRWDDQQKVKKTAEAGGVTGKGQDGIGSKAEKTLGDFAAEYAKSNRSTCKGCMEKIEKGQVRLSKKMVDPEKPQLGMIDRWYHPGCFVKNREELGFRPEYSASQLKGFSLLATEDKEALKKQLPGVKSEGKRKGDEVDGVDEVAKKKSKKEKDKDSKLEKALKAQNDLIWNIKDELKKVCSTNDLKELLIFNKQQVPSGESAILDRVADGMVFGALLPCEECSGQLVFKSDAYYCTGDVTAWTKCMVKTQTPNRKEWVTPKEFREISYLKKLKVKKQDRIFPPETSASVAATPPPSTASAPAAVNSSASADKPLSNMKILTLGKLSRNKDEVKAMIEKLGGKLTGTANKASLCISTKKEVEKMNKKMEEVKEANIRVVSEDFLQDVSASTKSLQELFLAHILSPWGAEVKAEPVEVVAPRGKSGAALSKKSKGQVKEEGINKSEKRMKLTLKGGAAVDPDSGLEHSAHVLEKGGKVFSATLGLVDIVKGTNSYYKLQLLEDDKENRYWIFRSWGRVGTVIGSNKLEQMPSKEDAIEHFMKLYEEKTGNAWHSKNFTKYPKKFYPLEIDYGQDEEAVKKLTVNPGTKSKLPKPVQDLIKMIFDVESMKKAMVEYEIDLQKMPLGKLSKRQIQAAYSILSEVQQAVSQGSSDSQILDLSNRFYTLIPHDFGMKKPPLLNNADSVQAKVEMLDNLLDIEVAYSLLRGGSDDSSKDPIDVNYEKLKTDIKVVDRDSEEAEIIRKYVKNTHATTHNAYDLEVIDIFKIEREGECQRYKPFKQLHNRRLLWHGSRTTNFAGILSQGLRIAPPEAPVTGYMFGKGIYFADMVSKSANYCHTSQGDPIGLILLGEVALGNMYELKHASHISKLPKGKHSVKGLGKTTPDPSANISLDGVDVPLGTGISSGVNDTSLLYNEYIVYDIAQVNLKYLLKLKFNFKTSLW", "assay": "In vitro cellular MFAM imaging of drug target engagement in live cells", "assay_type": "cell-based", "method": "HT1080 cells (ATCC) stably expressing H2B mApple fluorescent protein were cultured in DMEM with 10% FBS, 1% pen-strep and 100 μg/ml geneticin (Invitrogen). HT1080 cells were cultured in DMEM with 10% FBS and 1% pen-strep. […] Cells were plated onto 25 mm #1 cover glass for in vitro imaging.\nCells on 25 mm cover glass were mounted into a closed bath perfusion chamber (Warner Instruments) and perfused with a custom perfusion system that enabled solution switching in the imaging chamber. Cells were imaged in phenol red-free DMEM with 10% FBS and 1% pen-strep. AZD2281-BODIPY FL (1 μM) was perfused into the imaging chamber followed by a washout with drug free media. Images were obtained during the entire time interval at regular time points. For competition experiments, free AZD2281 (5 μM) (Selleck Chemicals) was added to the incubating solution before during and after AZD2281-BODIPY FL addition. Me5-BODIPY was used for fluorophore control experiments.\nas §1"}, "PARP [3]": {"test_system": "PARP", "assay": "In vivo MFAM imaging of drug target engagement in HT1080 tumor, mouse dorsal skinfold window chamber", "method": "All animal experiments were performed in accordance with the Institutional Animal Care and Use Committee at Massachusetts General Hospital. Female 20-weeks old nude mice (Cox-7, Massachusetts General Hospital) were used. All surgical procedures were conducted under sterile conditions and facilitated through the use of a zoom stereomicroscope (Olympus SZ61). During all surgical procedures and imaging experiments mice were anesthetized by isofluorane vaporization (Harvard Apparatus) at a flow rate of […]: 2 L/minute oxygen. The body temperature of the mice was kept constant at 37° C. during all imaging experiments and surgical procedures. Dorsal skinfold window chambers (DSC) were implanted one day prior to imaging following a well-established protocol. Briefly, the two layers of skin on the back of the mouse were stretched and kept in place by the DSC. One skin layer was surgically removed and replaced by a 12-mm diameter glass cover slip positioned on one side of the DSC allowing for convenient access and imaging of the tumor area. A spacer located on the DSC prevented excessive compression of both tissue and vessel guaranteeing good vascularperfusion within the tumor region.\nHT1080 H2B mApple cells were harvested by trypsinization (0.25% trypsin:EDTA) and resuspended in PBS. […]"}, "PARP1 [4]": {"target": "T1, PARP1", "assay": "FLIM fluorescence lifetime upon binding to PARP1 in vitro", "method": "Fluorescence lifetime imaging was performed using a Zeiss 710 confocal NLO laser scanning system on an upright Zeiss Examiner stand with a 40×NA 1.1 water immersion LD CApochromat objective and a Becker & Hickl TCSPC system. Two-photon excitation was achieved using a Coherent Chameleon Vision II tunable laser (680-1040 nm) that provided 140-femtosecond pulses at a 80-Mhz repetition rate with an output power of 3 W at the peak of the tuning curve (800 nm). Laser scanning was controlled by Zeiss Zen software and set to a pixel dwell time of 1.58 microseconds and 0.9-sec frame rate at 910 nm wavelength excitation.\nEnhanced detection of the scattered component of the emitted (fluorescence) photons was afforded by the use of a Becker & Hickl HPM-100-40 hybrid detector, which incorporates the Hamamatsu R10467 hybrid PMT tube Imaging was performed in the dark with blackout enclosure around the microscope to exclude external sources of light during the sensitive period of FLIM measurement. Emitted fluorescence was deflected to the non-descanned light path via a 760+ mirror and emission range was limited to 500-550 nm by a Chroma filter in front of the HPM-100-40 detector. […]\nwhere r0 is the fundamental anisotropy of the dye-dependent on the orientation of the excitation and emission dipole moments. […] The fluorescent microspheres (100% and 30%) had the same fluorescence lifetime, 3.6±0.3 nsec. […]"}, "NeutrAvidin": {"target": "T3, NeutrAvidin (Gallus gallus, UniProt P02701)", "T3 construct": "purchased Thermo Scientific", "T3 sequence (P02701 25-152)": "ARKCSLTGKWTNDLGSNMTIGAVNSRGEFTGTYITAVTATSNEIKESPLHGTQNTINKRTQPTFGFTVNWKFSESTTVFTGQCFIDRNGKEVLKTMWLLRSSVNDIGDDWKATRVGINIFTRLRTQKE", "assay": "Biotin-BODIPY and NeutrAvidin binding by MFAM anisotropy", "conditions": "10x unlabeled biotin (100 μM)", "method": "Biotin was conjugated to Me5-BODIPY (Biotin-BODIPY) and brought to 1 mM stock solution in DMSO. Biotin-BODIPY (10 μM) was mixed with varying concentrations of NeutrAvidin (Thermo Scientific) in PBS with 1% Triton X (Sigma). Each sample was imaged in triplicate as a drop between a microscope slide and cover glass. Measurements of each sample were also performed using single photon excitation in a plate reader. Measurements were also made in the presence of 100 μM free Biotin to competitively compete with the Biotin-BODIPY."}}}
{"smiles": "Cc1cc(C)n2c1C=C1C=CC(CCC(=O)N3CCN(C(=O)c4cc(Cc5n[nH]c(=O)c6ccccc56)ccc4F)CC3)=[N+]1[B-]2(F)F", "note": "[AZD2281-BODIPY FL]", "values": [{"measurement": "anisotropy of target-bound over free or intracellular drug", "setting": "PARP1 [1]", "result": "significant increase in anisotropy"}, {"measurement": "localisation of bound drug (high anisotropy)", "setting": "PARP [2]; HT1080 cells incubated with probe", "result": "bound drug was present in the nucleus"}, {"measurement": "bound drug after extended washing cycles", "setting": "PARP [2]; HT1080 cells, after washing", "result": "the nuclear, bound drug remains"}, {"measurement": "target binding in the cytoplasm", "setting": "PARP [2]; HT1080 cells, loading and washing", "result": "no target binding"}, {"measurement": "nuclear anisotropy over time in vivo", "setting": "PARP [3]; after intravenous infusion vs 34 minutes later", "result": "the nuclear anisotropy increased"}, {"measurement": "binding to PARP in the nucleus in vivo", "setting": "PARP [3]; intravenous, implanted HT1080 H2B mApple tumor", "result": "occurred immediately upon drug infusion"}, {"measurement": "fluorescence lifetime", "setting": "PARP1 [4]; bound to PARP1", "result": "3.3±0.3", "unit": "nsec"}, {"measurement": "fluorescence lifetime", "setting": "PARP1 [4]; unbound", "result": "4.1±0.3", "unit": "nsec"}]}
{"smiles": "O=C(O)CCCC[C@@H]1SC[C@@H]2NC(=O)N[C@@H]21", "note": "[biotin]", "values": [{"measurement": "anisotropy increase of Biotin-BODIPY in presence of unlabeled competitor", "setting": "NeutrAvidin", "result": "suppressed"}]}
